# In ChEMBL document CHEMBL4428125, “8-Substituted 1,3-dimethyltetrahydropyrazino[2,1-f]purinediones: Water-soluble adenosine receptor antagonists and monoamine oxidase B inhibitors” (Bioorg Med Chem, 2016):
# Legend:
# [1] = target: T1, Adenosine receptor A1 (Rattus norvegicus, UniProt P25099); experiment: Displacement of [3H]CCPA from A1 receptor in rat brain cortex membranes by liquid scintillation counting method; assay type: cell membranes
# T1 sequence (P25099 whole entry): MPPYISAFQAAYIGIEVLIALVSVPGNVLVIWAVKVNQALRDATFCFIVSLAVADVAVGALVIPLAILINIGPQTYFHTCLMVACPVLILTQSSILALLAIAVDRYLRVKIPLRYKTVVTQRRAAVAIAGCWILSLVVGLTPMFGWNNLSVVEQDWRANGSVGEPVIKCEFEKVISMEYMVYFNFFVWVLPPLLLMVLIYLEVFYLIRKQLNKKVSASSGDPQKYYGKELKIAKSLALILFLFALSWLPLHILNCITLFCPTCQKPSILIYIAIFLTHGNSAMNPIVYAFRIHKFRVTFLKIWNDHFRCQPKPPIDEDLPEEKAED
# [2] = target: T2, Adenosine receptor A1 (Rattus norvegicus) (UniProt P25099); experiment: Displacement of [3H]CCPA from A1 receptor in rat brain cortex membranes at 1.5 uM by liquid scintillation counting method; assay type: cell membranes
# T2 sequence (whole entry): T1 sequence (P25099 whole entry)
# [3] = target: Adenosine receptor A2a (Rattus norvegicus, UniProt P30543); experiment: Displacement of [3H]MSX from A2A receptor in rat brain striatum membranes measured after 30 mins by liquid scintillation counting method; assay type: cell membranes
# Sequence of Adenosine receptor A2a (P30543 whole entry): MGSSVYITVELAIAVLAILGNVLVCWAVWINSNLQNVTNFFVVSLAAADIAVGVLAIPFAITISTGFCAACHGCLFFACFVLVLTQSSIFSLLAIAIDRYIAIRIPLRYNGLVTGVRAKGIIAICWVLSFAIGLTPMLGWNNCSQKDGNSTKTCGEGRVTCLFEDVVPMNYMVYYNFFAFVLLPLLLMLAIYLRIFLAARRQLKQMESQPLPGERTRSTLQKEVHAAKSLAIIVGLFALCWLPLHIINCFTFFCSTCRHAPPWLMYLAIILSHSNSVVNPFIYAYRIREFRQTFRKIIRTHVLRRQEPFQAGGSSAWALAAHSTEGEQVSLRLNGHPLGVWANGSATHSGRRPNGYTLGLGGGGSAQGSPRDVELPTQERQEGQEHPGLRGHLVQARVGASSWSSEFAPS
# [4] = target: T3, Amine oxidase [flavin-containing] B (Homo sapiens, UniProt P27338); experiment: Inhibition of recombinant human MAO-B expressed in baculovirus infected BTI insect cells preincubated for 30 mins followed by addition of p-tyramine as substrate measured over 45 mins by Amplex Red MAO assay
# T3 sequence (P27338 whole entry): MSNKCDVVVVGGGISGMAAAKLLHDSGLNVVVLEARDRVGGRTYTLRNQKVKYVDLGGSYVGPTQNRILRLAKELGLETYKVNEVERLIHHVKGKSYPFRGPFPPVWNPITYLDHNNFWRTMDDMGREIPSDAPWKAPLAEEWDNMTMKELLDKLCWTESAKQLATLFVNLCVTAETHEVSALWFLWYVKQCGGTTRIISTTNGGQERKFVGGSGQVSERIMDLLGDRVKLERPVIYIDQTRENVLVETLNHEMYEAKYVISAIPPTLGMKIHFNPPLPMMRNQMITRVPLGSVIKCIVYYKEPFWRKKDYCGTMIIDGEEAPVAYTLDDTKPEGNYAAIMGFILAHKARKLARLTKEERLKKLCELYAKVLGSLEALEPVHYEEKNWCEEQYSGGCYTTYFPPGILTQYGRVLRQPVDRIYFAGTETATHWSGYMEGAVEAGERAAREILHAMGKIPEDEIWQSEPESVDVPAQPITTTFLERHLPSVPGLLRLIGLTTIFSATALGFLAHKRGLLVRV
# [5] = target: T3, Amine oxidase [flavin-containing] B; experiment: Inhibition of recombinant human MAO-B expressed in baculovirus infected BTI insect cells at 10 uM preincubated for 30 mins followed by addition of p-tyramine as substrate measured over 45 mins by Amplex Red MAO assay relative to control; details: 0.75 h
# [6] = target: T4, Adenosine receptor A2b (Homo sapiens, UniProt P29275); experiment: Displacement of [3H]PSB-603 from human A2B receptor expressed in CHO cell membrane; assay type: cell membranes
# T4 sequence (P29275 whole entry): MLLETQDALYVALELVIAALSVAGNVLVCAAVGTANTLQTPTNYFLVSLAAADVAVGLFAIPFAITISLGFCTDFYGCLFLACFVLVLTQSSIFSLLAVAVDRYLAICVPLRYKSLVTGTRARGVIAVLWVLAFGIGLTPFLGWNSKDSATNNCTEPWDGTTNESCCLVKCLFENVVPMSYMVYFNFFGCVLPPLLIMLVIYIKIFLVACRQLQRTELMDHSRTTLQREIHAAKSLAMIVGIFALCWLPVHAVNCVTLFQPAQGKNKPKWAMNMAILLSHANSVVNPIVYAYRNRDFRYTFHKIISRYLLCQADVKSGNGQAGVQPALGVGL
# [7] = target: T5, Adenosine receptor A2b (Homo sapiens) (UniProt P29275); experiment: Displacement of [3H]PSB-603 from human A2B receptor expressed in CHO cell membrane at 1 uM relative to control; assay type: cell membranes
# T5 sequence (whole entry): T4 sequence (P29275 whole entry)
# [8] = target: T6, Adenosine receptor A3 (Homo sapiens, UniProt P0DMS8); experiment: Displacement of [3H]PSB-11 from human A3 receptor expressed in CHO cell membrane by liquid scintillation counting method relative to control; assay type: cell membranes
# T6 sequence (P0DMS8 whole entry): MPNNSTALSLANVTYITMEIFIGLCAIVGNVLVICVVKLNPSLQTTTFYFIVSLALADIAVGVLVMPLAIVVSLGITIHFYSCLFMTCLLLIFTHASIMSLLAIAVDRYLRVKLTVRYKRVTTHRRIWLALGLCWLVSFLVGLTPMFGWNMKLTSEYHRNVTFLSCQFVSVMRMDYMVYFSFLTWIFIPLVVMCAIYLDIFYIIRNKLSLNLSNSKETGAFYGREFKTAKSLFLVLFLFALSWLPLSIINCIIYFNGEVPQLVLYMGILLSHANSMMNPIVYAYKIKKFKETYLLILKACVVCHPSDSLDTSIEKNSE
# [9] = target: T7, Adenosine receptor A3 (Homo sapiens) (UniProt P0DMS8); experiment: Displacement of [3H]PSB-11 from human A3 receptor expressed in CHO cell membrane at 10 uM by liquid scintillation counting method relative to control relative to control; assay type: cell membranes
# T7 sequence (whole entry): T6 sequence (P0DMS8 whole entry)
# [10] = target: Adenosine receptor A2a (Rattus norvegicus) (UniProt P30543); experiment: Displacement of [3H]MSX from A2A receptor in rat brain striatum membranes at 1 uM measured after 30 mins by liquid scintillation counting method relative to control; assay type: cell membranes
# Sequence of Adenosine receptor A2a (Rattus norvegicus) (P30543 whole entry): as the sequence (P30543 whole entry) above
# [11] = target: T8, Amine oxidase [flavin-containing] A (Homo sapiens, UniProt P21397); experiment: Inhibition of recombinant human MAO-A expressed in baculovirus infected BTI insect cells preincubated for 30 mins followed by addition of p-tyramine as substrate measured over 45 mins by Amplex Red MAO assay
# T8 sequence (P21397 whole entry): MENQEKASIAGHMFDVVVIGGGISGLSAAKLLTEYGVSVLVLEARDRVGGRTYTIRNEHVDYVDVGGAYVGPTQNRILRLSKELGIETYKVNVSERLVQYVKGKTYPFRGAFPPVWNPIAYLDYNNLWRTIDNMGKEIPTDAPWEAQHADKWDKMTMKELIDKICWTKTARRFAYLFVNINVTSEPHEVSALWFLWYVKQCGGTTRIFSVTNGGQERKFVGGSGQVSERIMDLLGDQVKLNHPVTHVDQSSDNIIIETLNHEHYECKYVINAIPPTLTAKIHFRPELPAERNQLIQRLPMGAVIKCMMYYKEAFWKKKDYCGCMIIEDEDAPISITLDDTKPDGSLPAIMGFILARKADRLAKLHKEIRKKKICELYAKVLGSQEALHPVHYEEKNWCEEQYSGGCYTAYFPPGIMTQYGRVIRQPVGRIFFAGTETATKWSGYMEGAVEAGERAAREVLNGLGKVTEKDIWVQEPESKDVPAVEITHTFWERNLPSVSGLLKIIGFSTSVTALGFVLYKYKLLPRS
# [12] = target: T8, Amine oxidase [flavin-containing] A; experiment: Inhibition of recombinant human MAO-A expressed in baculovirus infected BTI insect cells at 10 uM preincubated for 30 mins followed by addition of p-tyramine as substrate measured over 45 mins by Amplex Red MAO assay relative to control; details: 0.75 h
Structure (SMILES),Ki [1],Activity [2],Ki [3],IC50 [4],inhibition at 10 µM [5],Ki [6],Activity [7],Ki [8],Activity [9],Activity [10],IC50 [11],inhibition at 10 µM [12]
Cn1c(=O)c2c(nc3n2CCN(CCc2cccc(C(F)(F)F)c2)C3)n(C)c1=O,> 1500 nM,6%,2580 nM,10000 nM,63%,> 1000 nM,12%,> 10000 nM,29%,–,–,–
Cn1c(=O)c2c(nc3n2CCN(CCc2ccc(F)c(F)c2)C3)n(C)c1=O,> 1500 nM,10%,> 1000 nM,–,60%,> 1000 nM,12%,> 10000 nM,11%,19%,–,–
Cn1c(=O)c2c(nc3n2CCN(c2cccc(F)c2)C3)n(C)c1=O,> 1500 nM,20%,2920 nM,1500 nM,–,> 1000 nM,3%,> 10000 nM,18%,–,> 10000 nM,8%
Cn1c(=O)c2c(nc3n2CCN([C@@H]2CCc4ccccc42)C3)n(C)c1=O,> 1500 nM,28%,5080 nM,2150 nM,–,> 1000 nM,8%,> 10000 nM,38%,–,–,–
Cn1c(=O)c2c(nc3n2CCN(c2cccc4ccccc24)C3)n(C)c1=O,> 1500 nM,17%,2940 nM,828 nM,–,> 1000 nM,10%,> 10000 nM,29%,–,> 10000 nM,16%
Cn1c(=O)c2c(nc3n2CCN(CCc2ccccc2)C3)n(C)c1=O,> 1500 nM,9%,9610 nM,> 10000 nM,39%,> 1000 nM,11%,> 10000 nM,43%,–,> 10000 nM,-12%
Cn1c(=O)c2c(nc3n2CCN(CCOc2ccc(Cl)c(Cl)c2)C3)n(C)c1=O,1250 nM,–,2420 nM,> 10000 nM,27%,> 1000 nM,21%,> 10000 nM,36%,–,> 10000 nM,14%
Cn1c(=O)c2c(nc3n2CCN(CCc2c(Cl)cccc2Cl)C3)n(C)c1=O,> 1500 nM,34%,3050 nM,932 nM,–,> 1000 nM,22%,> 10000 nM,10%,–,–,–
Cn1c(=O)c2c(nc3n2CCN(c2ccc(F)cc2)C3)n(C)c1=O,> 1500 nM,4%,2130 nM,2230 nM,–,> 1000 nM,9%,> 10000 nM,24%,–,–,–
